# Experimental data reported in ChEMBL document CHEMBL4765264, “Design, synthesis and biological evaluation of novel 2-(5-aryl-1H-imidazol-1-yl) derivatives as potential inhibitors of the HIV-1 Vpu and host BST-2 protein interaction” (Eur J Med Chem, 2020).
# Columns and labels:
# [1] = (§1) Inhibition of recombinant HIV1 Viral Protein U expressed in Escherichia coli BL21(DE3) cells/BST-2 (unknown origin) interaction at 100 uM preincubated for 30 mins with viral protein U followed by further incubation with BST-2 for 1 hr by sandwich ELISA relative to control; conditions: time 90.0 min
# [2] = system: Human immunodeficiency virus 1; assay: Antiviral activity against HIV1 infected in PBMC assessed as reduction in viral replication by measuring reduction in p24 production by ELISA; format: functional, organism-based; conditions: Human immunodeficiency virus 1, PBMC
# [3] = system: Human immunodeficiency virus 1; assay: Antiviral activity against HIV1 LAV infected in human MT4 cells assessed as reduction in viral replication by measuring reduction in p24 expression incubated for 72 hrs by ELISA; format: functional, organism-based; conditions: Human immunodeficiency virus 1, LAV, MT4, 72 h
# [4] = as §1, with “recombinant biotinylated” for “recombinant”, “BL21(DE3)cells/recombinant GST-tagged BST-2” for “BL21(DE3) cells/BST-2”, “Alphascreen assay” for “sandwich ELISA”; conditions: time 90.0 min
# [5] = Aqueous solubility of the compound in phosphate buffer saline at 100 uM at wavelength of 250 nm incubated for overnight under shaking condition by filtration assay based UV-visible spectroscopy; format: physicochemical
# [6] = Cytotoxicity against human MT4 cells assessed as inhibition of cell viability incubated for 72 hrs by MTS assay; format: cell-based
# [7] = Selectivity index, ratio of CC50 for human MT4 cells to EC50 for antiviral activity against HIV1 LAV infected in human MT4 cells; format: toxicity, cell-based; conditions: MT4 cells (CC50) and HIV1 LAV infected MT4 cells (EC50)
# [8] = Inhibition of recombinant biotinylated HIV1 Viral Protein U expressed in Escherichia coli BL21(DE3) cells/recombinant GST-tagged BST-2 (unknown origin) interaction preincubated for 30 mins with viral protein U followed by further incubation with BST-2 for 1 hr by Alphascreen assay
# [9] = Aqueous solubility of the compound in phosphate buffer saline at 200 uM at wavelength of 250 nm incubated for overnight under shaking condition by filtration assay based UV-visible spectroscopy; format: physicochemical
SMILES,inhibition [1] [%],other results
NNC(=O)Cn1cncc1-c1ccccc1,39,
COc1ccc(-c2cncn2CC(=O)O)cc1O,0,
O=c1cnn([C@@H]2O[C@H](CO)[C@@H](O)[C@H]2O)c(=S)[nH]1,54,
O=C(O)Cn1cncc1-c1ccc(F)cc1,11,
Cc1nnc(C(=O)NC(C)(C)c2nc(C(=O)NCc3ccc(F)cc3)c(O)c(=O)n2C)o1 [RALTEGRAVIR],,EC50 [2]: ≤ 0.008 µM; EC50 [3]: 0.0079 µM
COc1ccc(-c2cncn2CC(=O)NN)cc1O,72,inhibition [4]: 60%
COc1cccc(-c2cncn2CC(=O)NN)c1,69,solubility at 100 µM [5]: ≥ 100 µM; CC50 at 72 h [6]: 160 µM; inhibition [4]: 68%; selectivity ratio [7]: 1; IC50 [8]: 17.6 µM; EC50 [3]: 158 µM; solubility at 200 µM [9]: ≥ 200 µM
CCOC(=O)[C@H](C)n1cncc1-c1ccc(F)cc1,63,inhibition [4]: 64%
COc1cccc(-c2cncn2CC(=O)O)c1,30,
CCOC(=O)Cn1cncc1-c1ccc(OC)c(O)c1,30,
CCOC(=O)Cn1cncc1-c1ccccc1,82,solubility at 100 µM [5]: ≥ 100 µM; CC50 at 72 h [6]: 184 µM; inhibition [4]: 83%; selectivity ratio [7]: 29; IC50 [8]: 11.6 µM; EC50 [3]: 6.3 µM; solubility at 200 µM [9]: ≥ 200 µM
O=C(O)Cn1cncc1-c1ccccc1,0,
CCOC(=O)Cn1cncc1-c1ccc(C(C)(C)C)cc1,17,
O=C(O)Cn1cncc1-c1ccc2c(c1)OCO2,9,
CCOC(=O)Cn1cncc1-c1ccc2c(c1)OCO2,33,
CCOC(=O)[C@H](C)n1cncc1-c1ccccc1,22,
COc1ccc(-c2cncn2CC(=O)O)cc1OC,25,
NNC(=O)Cn1cncc1-c1ccc(F)cc1,48,
CC(C)(C)c1ccc(-c2cncn2CC(=O)NN)cc1,45,
CCOC(=O)Cn1cncc1-c1cccc(OC)c1,51,inhibition [4]: 56%
NNC(=O)Cn1cncc1-c1ccc2c(c1)OCO2,22,
CC(C)(C)c1ccc(-c2cncn2CC(=O)O)cc1,2,
CCOC(=O)[C@H](C)n1cncc1-c1ccc(OC)c(OC)c1,20,
COc1ccc(-c2cncn2CC(=O)NN)cc1OC,28,
CCOC(=O)Cn1cncc1-c1ccc(F)cc1,54,inhibition [4]: 55%
CCOC(=O)Cn1cncc1-c1ccc(OC)c(OC)c1,58,inhibition [4]: 61%
